Publication PMC4411097, “Pachymic Acid Inhibits Growth and Induces Apoptosis of Pancreatic Cancer In Vitro and In Vivo by Targeting ER Stress” (PLoS ONE, 2015)

Test system: MIA PaCa-2 cells
Assay: DNA microarray analysis (Affymetrix Human PrimeView)
Format: cell-based
[1] = gene SRP19, probeset 11758864_at
[2] = gene STC1, probeset 11750279_a_at
[3] = gene TMEM201, probeset 11726819_at
[4] = gene TNFAIP2, probeset 11717823_s_at
[5] = gene TNFRSF12A, probeset 11745020_a_at
[6] = gene TNFSF18, probeset 11737853_at
[7] = gene TRAF1, probeset 11721588_at
[8] = gene TXNRD1, probeset 11750416_a_at
[9] = gene symbol ---, probeset AFFX-M27830_M_at

## C=C(CC[C@@H](C(=O)O)[C@H]1[C@H](O)C[C@@]2(C)C3=C(CC[C@]12C)[C@@]1(C)CC[C@H](OC(C)=O)C(C)(C)[C@@H]1CC3)C(C)C [PA, Pachymic acid]
Gene SPRY4, probeset 11736669_s_at, MiaPaca-2, PA-treated
  Mean (MiaPaca-2 * PA): 6.19
[1]
  Fold-Change (MiaPaca-2 * PA vs. MiaPaca-2 * control): 1.58
  Mean (MiaPaca-2 * PA): 8.71
[2]
  Fold-Change (MiaPaca-2 * PA vs. MiaPaca-2 * control): 1.56
  Mean (MiaPaca-2 * PA): 5.97
Gene STX1A, probeset 11720340_a_at
  Mean (MiaPaca-2 * PA): 6.73
[3]
  Fold-Change (MiaPaca-2 * PA vs. MiaPaca-2 * control): 1.56
  Mean (MiaPaca-2 * PA): 6.77
Gene TNF, probeset 11721577_at
  Fold-Change (MiaPaca-2 * PA vs. MiaPaca-2 * control): 1.57
  Mean (MiaPaca-2 * PA): 5.89
[4]
  Fold-Change (MiaPaca-2 * PA vs. MiaPaca-2 * control): 1.60
  Mean (MiaPaca-2 * PA): 8.52
[5]
  Fold-Change (MiaPaca-2 * PA vs. MiaPaca-2 * control): 1.59
  Mean (MiaPaca-2 * PA): 9.93
[6]
  Fold-Change (MiaPaca-2 * PA vs. MiaPaca-2 * control): 1.61
  Mean (MiaPaca-2 * PA): 7.58
Gene TRA2B, probeset 11734663_at, MiaPaca-2
  Fold-Change (MiaPaca-2 * PA vs. MiaPaca-2 * control): 1.51
Gene TRA2B, probeset 11734663_at, MiaPaca-2, PA-treated
  Mean (MiaPaca-2 * PA): 5.21
[7]
  Fold-Change (MiaPaca-2 * PA vs. MiaPaca-2 * control): 1.57
  Mean (MiaPaca-2 * PA): 5.45
[8]
  Fold-Change (MiaPaca-2 * PA vs. MiaPaca-2 * control): 1.56
  Mean (MiaPaca-2 * PA): 9.74
[9]
  Fold-Change (MiaPaca-2 * PA vs. MiaPaca-2 * control): 1.54
  Mean (MiaPaca-2 * PA): 11.57
Probeset 11715388_s_at
  Fold-Change (MiaPaca-2 * PA vs. MiaPaca-2 * control), CDKN1A: 1.87
  Mean (MiaPaca-2 * PA), CDKN1A: 8.59
Probeset 11715441_a_at
  Fold-Change (MiaPaca-2 * PA vs. MiaPaca-2 * control), CTGF: 2.27
  Mean (MiaPaca-2 * PA), CTGF: 6.57
Probeset 11715442_s_at
  Fold-Change (MiaPaca-2 * PA vs. MiaPaca-2 * control), CTGF: 2.36
  Mean (MiaPaca-2 * PA), CTGF: 7.76
Probeset 11715493_a_at
  Fold-Change (MiaPaca-2 * PA vs. MiaPaca-2 * control), CYR61: 2.12
  Mean (MiaPaca-2 * PA), CYR61: 10.88
Probeset 11715636_a_at
  Fold-Change (MiaPaca-2 * PA vs. MiaPaca-2 * control), SERPINE1: 1.72
  Mean (MiaPaca-2 * PA), SERPINE1: 9.63
Probeset 11715766_a_at
  Fold-Change (MiaPaca-2 * PA vs. MiaPaca-2 * control), DUSP1: 1.72
  Mean (MiaPaca-2 * PA), DUSP1: 8.75
Probeset 11716939_a_at
  Fold-Change (MiaPaca-2 * PA vs. MiaPaca-2 * control), HMOX1: 1.83
  Mean (MiaPaca-2 * PA), HMOX1: 7.80
Probeset 11717039_a_at
  Fold-Change (MiaPaca-2 * PA vs. MiaPaca-2 * control), GADD45A: 1.88
  Mean (MiaPaca-2 * PA), GADD45A: 11.35
Probeset 11717860_a_at
  Fold-Change (MiaPaca-2 * PA vs. MiaPaca-2 * control), EGR1: 1.78
  Mean (MiaPaca-2 * PA), EGR1: 10.72
Probeset 11718618_a_at
  Fold-Change (MiaPaca-2 * PA vs. MiaPaca-2 * control), DNAJA4: 2.01
  Mean (MiaPaca-2 * PA), DNAJA4: 6.51
Probeset 11718841_s_at
  Fold-Change (MiaPaca-2 * PA vs. MiaPaca-2 * control), IL8: 2.40
  Mean (MiaPaca-2 * PA), IL8: 12.69
Probeset 11718939_s_at
  Fold-Change (MiaPaca-2 * PA vs. MiaPaca-2 * control), TNFAIP3: 2.11
  Mean (MiaPaca-2 * PA), TNFAIP3: 7.50
Probeset 11718940_a_at
  Fold-Change (MiaPaca-2 * PA vs. MiaPaca-2 * control), TNFAIP3: 2.00
  Mean (MiaPaca-2 * PA), TNFAIP3: 6.10
Probeset 11719344_a_at
  Fold-Change (MiaPaca-2 * PA vs. MiaPaca-2 * control), ATF3: 3.30
  Mean (MiaPaca-2 * PA), ATF3: 7.56
Probeset 11719366_s_at
  Fold-Change (MiaPaca-2 * PA vs. MiaPaca-2 * control), CXCL1: 2.03
  Mean (MiaPaca-2 * PA), CXCL1: 12.27
Probeset 11719811_a_at
  Fold-Change (MiaPaca-2 * PA vs. MiaPaca-2 * control), TRIB3: 1.77
  Mean (MiaPaca-2 * PA), TRIB3: 9.38
Probeset 11719898_s_at
  Fold-Change (MiaPaca-2 * PA vs. MiaPaca-2 * control), HBEGF: 2.54
  Mean (MiaPaca-2 * PA), HBEGF: 8.25
Probeset 11719916_at
  Fold-Change (MiaPaca-2 * PA vs. MiaPaca-2 * control), IL1B: 1.90
  Mean (MiaPaca-2 * PA), IL1B: 7.92
Probeset 11720062_s_at
  Fold-Change (MiaPaca-2 * PA vs. MiaPaca-2 * control), IER3: 2.10
  Mean (MiaPaca-2 * PA), IER3: 10.23
Probeset 11722141_at
  Fold-Change (MiaPaca-2 * PA vs. MiaPaca-2 * control), RELB: 1.71
  Mean (MiaPaca-2 * PA), RELB: 7.47
Probeset 11722705_at
  Fold-Change (MiaPaca-2 * PA vs. MiaPaca-2 * control), B3GNT5: 1.83
  Mean (MiaPaca-2 * PA), B3GNT5: 6.95
Probeset 11722850_a_at
  Fold-Change (MiaPaca-2 * PA vs. MiaPaca-2 * control), BIRC3: 1.69
  Mean (MiaPaca-2 * PA), BIRC3: 8.98
Probeset 11722851_at
  Fold-Change (MiaPaca-2 * PA vs. MiaPaca-2 * control), BIRC3: 1.77
  Mean (MiaPaca-2 * PA), BIRC3: 7.17
Probeset 11722867_at
  Fold-Change (MiaPaca-2 * PA vs. MiaPaca-2 * control), CDCP1: 1.68
  Mean (MiaPaca-2 * PA), CDCP1: 8.84
Probeset 11723050_a_at
  Fold-Change (MiaPaca-2 * PA vs. MiaPaca-2 * control), HSPA6: 9.74
  Mean (MiaPaca-2 * PA), HSPA6: 8.06
Probeset 11723753_a_at
  Fold-Change (MiaPaca-2 * PA vs. MiaPaca-2 * control), ZFAND2A: 2.17
  Mean (MiaPaca-2 * PA), ZFAND2A: 9.04
Probeset 11724478_s_at
  Fold-Change (MiaPaca-2 * PA vs. MiaPaca-2 * control), FOSL1: 1.74
  Mean (MiaPaca-2 * PA), FOSL1: 8.17
Probeset 11726329_x_at
  Fold-Change (MiaPaca-2 * PA vs. MiaPaca-2 * control), GBP1: 1.76
  Mean (MiaPaca-2 * PA), GBP1: 5.88
Probeset 11728413_at
  Fold-Change (MiaPaca-2 * PA vs. MiaPaca-2 * control), SERPINB8: 1.95
  Mean (MiaPaca-2 * PA), SERPINB8: 8.88
Probeset 11728476_a_at
  Fold-Change (MiaPaca-2 * PA vs. MiaPaca-2 * control), CXCL3: 2.47
  Mean (MiaPaca-2 * PA), CXCL3: 8.40
Probeset 11728477_at
  Fold-Change (MiaPaca-2 * PA vs. MiaPaca-2 * control), CXCL3: 2.55
  Mean (MiaPaca-2 * PA), CXCL3: 8.95
Probeset 11729119_a_at
  Fold-Change (MiaPaca-2 * PA vs. MiaPaca-2 * control), HSPA1A /// HSPA1B: 1.71
  Mean (MiaPaca-2 * PA), HSPA1A /// HSPA1B: 11.39
